According to patent US8431596B2 (Cancer Research Technology Limited, priority 2007, dated 2013):

Target: T1, AXL (human catalytic domain) (Homo sapiens, UniProt P30530)
T1 construct: purchased Upstate Ltd. 14-512
T1 sequence (P30530 473-894): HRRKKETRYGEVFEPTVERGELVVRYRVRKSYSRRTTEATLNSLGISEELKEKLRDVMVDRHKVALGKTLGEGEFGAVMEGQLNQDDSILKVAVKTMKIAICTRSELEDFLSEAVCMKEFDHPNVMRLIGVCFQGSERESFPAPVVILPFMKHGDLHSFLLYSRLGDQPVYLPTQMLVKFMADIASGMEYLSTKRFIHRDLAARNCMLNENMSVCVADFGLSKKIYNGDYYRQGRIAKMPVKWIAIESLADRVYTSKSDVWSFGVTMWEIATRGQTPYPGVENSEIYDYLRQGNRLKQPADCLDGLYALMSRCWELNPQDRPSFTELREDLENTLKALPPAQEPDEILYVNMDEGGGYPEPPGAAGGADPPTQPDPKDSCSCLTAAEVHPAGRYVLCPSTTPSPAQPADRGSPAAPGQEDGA
Assay: AXL (human catalytic domain) Enzyme Activity Assay (IMAP fluorescence polarisation)
Assay type: biochemical
Method in brief: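 IMAP FP readout (Ex485/Em535, after overnight binding) measured inhibition of the human AXL catalytic domain (aa473-894, 15 nM final) acting on 100 nM 5FAM-CSK-tide at 150 μM ATP, equal to KM. Reactions ran 60 min at room temperature in pH 7.0 HEPES buffer; IC50 from 10-point curves.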

[1] = first data set, recombinant AXL isoform 1 aa473-894, 150 μM ATP
[2] = further data set (WW-001 through WW-169, XX-001 through XX-469, YY-001 through YY-016, ZZ-001 through ZZ-003), 150 μM ATP

Structure (SMILES) | IC50 [1] [nM] | IC50 [2] [nM]
O=C(Nc1nc2cccc(-c3ccc(Oc4ccccc4)cc3)n2n1)C1CC1 [WW-162] | 1000 to 10000 | 1000 to 10000
Fc1cccc(CNc2cccc(-c3cccc4nc(Nc5ccc(OCCN6CCCC6)cc5)nn34)c2)c1 [XX-264] | – | 100 to 1000
CCN(CC)CC(=O)Nc1ccc(Nc2nc3cccc(-c4ccc5c(c4)OCCO5)n3n2)cc1 [XX-119] | – | 100 to 1000
c1ccc(-c2ccc(-c3cccc4nc(Nc5ccc(OCCN6CCCC6)cc5)nn34)cc2)cc1 [XX-216] | – | 100 to 1000
COc1ccc(-c2cccc3nc(Nc4ccc(OCCNCCN(C)C)cc4)nn23)cc1 [XX-027] | < 1000 | 100 to 1000
CN(C)c1ccc(-c2cccc3nc(Nc4ccc(OCCN5CCCC5)cc4)nn23)cn1 [XX-198] | – | 100 to 1000
c1cc(-c2ccc3c(c2)CCO3)n2nc(Nc3ccc(OCCN4CCCCC4)cc3)nc2c1 [XX-052] | < 1000 | 100 to 1000
c1ccc(-c2nnc(-c3cccc(-c4cccc5nc(Nc6ccc(OCCN7CCCC7)cc6)nn45)c3)o2)cc1 [XX-309, {5-[3-(5-Phenyl-[1,3,4]oxadiazol-2-yl)-phenyl]-[1,2,4]triazolo[1,5-a]pyridin-2-yl}-[4-(2-pyrrolidin-1-yl-ethoxy)-phenyl]-amine] | – | 1000 to 10000
CC(C)(C)OC(=O)Nc1ccc(-c2cccc3nc(NC(=O)C4CC4)nn23)cc1 [WW-110] | 1000 to 10000 | 1000 to 10000
O=C(Nc1nc2cccc(-c3ccco3)n2n1)C1CC1 [WW-061] | 1000 to 10000 | 1000 to 10000
O=C(Cn1cc(-c2cccc3nc(Nc4ccc(OCCN5CCCC5)cc4)nn23)cn1)c1cccs1 [XX-317] | – | 100 to 1000
Cc1ccc(-c2cccc(-c3cccc4nc(Nc5ccc(OCCN6CCCC6)cc5)nn34)c2)cc1 [XX-465] | – | 1000 to 10000
Cc1ccc(-c2cccc3nc(NC(=O)C4CC4)nn23)cc1 [WW-047] | < 1000 | 100 to 1000
CS(=O)(=O)OCCn1cc(-c2cccc3nc(Nc4ccc(OCCN5CCCC5)cc4)nn23)cn1 [XX-091, Methanesulfonic acid 2-(4-{2-[4-(2-pyrrolidin-1-yl-ethoxy)-phenylamino]-[1,2,4]triazolo[1,5-a]pyridin-5-yl}-pyrazol-1-yl)-ethyl ester] | – | 100 to 1000
O=C(Cn1cc(-c2cccc3nc(Nc4ccc(OCCN5CCCC5)cc4)nn23)cn1)NCc1ccccc1 [XX-433] | – | 100 to 1000
CCN(CC)CCC(=O)Nc1cccc(Nc2nc3cccc(-c4ccc5c(c4)OCCO5)n3n2)c1 [XX-124] | – | 100 to 1000
CCCCS(=O)(=O)NCc1cccc(-c2cccc3nc(Nc4ccc(OCCN5CCCC5)cc4)nn23)c1 [XX-324, Butane-1-sulfonic acid 3-{2-[4-(2-pyrrolidin-1-yl-ethoxy)-phenylamino]-[1,2,4]triazolo[1,5-a]pyridin-5-yl}-benzylamide] | – | 1000 to 10000
Cc1cccc(S(=O)(=O)NCc2cccc(-c3cccc4nc(Nc5ccc(OCCN6CCCC6)cc5)nn34)c2)c1 [XX-370] | – | 100 to 1000
COc1ccc(NC(=O)Nc2cccc(-c3cccc4nc(Nc5ccc(OCCN6CCCC6)cc5)nn34)c2)cc1 [XX-231] | – | 100 to 1000
Cn1cc(-c2cccc3nc(Nc4ccc(OCCN5CCCC5)cc4)nn23)cn1 [XX-017] | < 1000 | 100 to 1000
Clc1ccc(COc2cccc(-c3cccc4nc(Nc5ccc(OCCN6CCCC6)cc5)nn34)c2)cc1 [XX-336] | – | 1000 to 10000
O=C(CCN1CCCC1)Nc1ccc(Nc2nc3cccc(-c4ccc5c(c4)OCCO5)n3n2)cc1 [XX-104] | – | 100 to 1000
O=C(Nc1cccc(-c2cccc3nc(Nc4ccc(OCCN5CCCC5)cc4)nn23)c1)c1ccco1 [XX-181] | – | 100 to 1000

Structure (SMILES) | IC50 [1] [nM] | IC50 [2] [nM]
O=C(Nc1cccc(Cl)c1)Nc1cccc(-c2cccc3nc(Nc4ccc(OCCN5CCCC5)cc4)nn23)c1 [XX-176] | – | 100 to 1000
Oc1cc(F)ccc1-c1cccc2nc(Nc3ccc(OCCN4CCCC4)cc3)nn12 [XX-196] | – | 1000 to 10000
Cc1ccc(-c2cccc(-c3cccc4nc(Nc5ccc(OCCN6CCCC6)cc5)nn34)c2)s1 [XX-463] | – | 1000 to 10000
c1cc(-c2ccc3c(c2)OCO3)n2nc(Nc3ccc(OCCN4CCCCC4)cc3)nc2c1 [XX-047] | < 1000 | 100 to 1000
c1cc(-c2ccc3c(c2)OCCO3)n2nc(Nc3ccc(NCCN4CCCC4)cc3)nc2c1 [XX-105] | – | 100 to 1000
O=C(CN1CCCC1)Nc1cccc(Nc2nc3cccc(-c4ccc5c(c4)OCCO5)n3n2)c1 [XX-107] | – | 100 to 1000
Cc1cc(Nc2nc3cccc(-c4ccc5c(c4)OCCO5)n3n2)ccc1OCC(N)=O [XX-071] | 1000 to 10000 | 1000 to 10000
c1cc(-c2ccc3c(c2)OCCO3)n2nc(Nc3ccc(NCCCN4CCCCC4)cc3)nc2c1 [XX-129] | – | 100 to 1000
c1cc(-c2cnn(CCSc3nccs3)c2)n2nc(Nc3ccc(OCCN4CCCC4)cc3)nc2c1 [XX-425] | – | 100 to 1000
c1cc(NCc2ccco2)cc(-c2cccc3nc(Nc4ccc(OCCN5CCCC5)cc4)nn23)c1 [XX-257] | – | 100 to 1000
COc1ccc(-c2cccc3nc(Nc4ccnc(C(=O)NCCN5CCCC5)c4)nn23)cc1 [XX-386] | – | 1000 to 10000
CCCCCn1cc(-c2cccc3nc(Nc4ccc(OCCN5CCCC5)cc4)nn23)cn1 [XX-343] | – | 100 to 1000
CS(=O)(=O)Nc1cccc(-c2cccc3nc(NC(=O)C4CC4)nn23)c1 [WW-011, Cyclopropanecarboxylic acid [5-(3-methanesulfonylamino-phenyl)-[1,2,4]triazolo[1,5-a]pyridin-2-yl]-amide] | 1000 to 10000 | 1000 to 10000
O=C(Nc1nc2cccc(-c3ccc4c(c3)OCO4)n2n1)C1CC1 [WW-049] | < 1000 | 100 to 1000
COc1cccc(-c2cccc3nc(Nc4ccc(OCCN5CCCC5)cc4)nn23)c1 [XX-150] | – | 1000 to 10000
CC(C)Cn1cc(-c2cccc3nc(NC(=O)C4CC4)nn23)cn1 [WW-108] | 1000 to 10000 | 1000 to 10000
Cn1cnnc1SCCn1cc(-c2cccc3nc(Nc4ccc(OCCN5CCCC5)cc4)nn23)cn1 [XX-429] | – | 100 to 1000
COc1ccccc1-c1cccc2nc(Nc3ccc(OCCN4CCCC4)cc3)nn12 [XX-194] | – | 1000 to 10000
O=C(CN1CCCCC1)Nc1cccc(Nc2nc3cccc(-c4ccc5c(c4)OCCO5)n3n2)c1 [XX-121] | – | 100 to 1000
c1ccc(Cn2cc(-c3cccc4nc(Nc5ccc(OCCCN6CCCCC6)cc5)nn34)cn2)cc1 [XX-423] | – | 100 to 1000
OCCn1cc(-c2cccc3nc(Nc4ccc(OCCN5CCCC5)cc4)nn23)cn1 [XX-307, 2-(4-{2-[4-(2-Pyrrolidin-1-yl-ethoxy)-phenylamino]-[1,2,4]triazolo[1,5-a]pyridin-5-yl}-pyrazol-1-yl)-ethanol] | – | 100 to 1000
Cc1cc(-c2cccc3nc(NC(=O)C4CC4)nn23)cnc1F [WW-088] | 1000 to 10000 | 1000 to 10000

Other lines, results leading:

IC50 [1] [nM] | IC50 [2] [nM] | Structure (SMILES)
< 1000 | ≤ 100 | COc1ccc(-c2cccc3nc(Nc4ccc(OCCN5CCCC5)c(OC)c4)nn23)cc1 [XX-066]
– | 100 to 1000 | c1ccc2sc(-c3cccc4nc(Nc5ccc(OCCN6CCCC6)cc5)nn34)cc2c1 [XX-294]
– | 100 to 1000 | c1cc(-c2ccc3c(c2)OCCO3)n2nc(Nc3ccnc(OCCN4CCCC4)c3)nc2c1 [XX-099]
< 1000 | ≤ 100 | COc1ccc(-c2cccc3nc(Nc4cccc(C(=O)NCCN(C)C)c4)nn23)cc1 [XX-037]
1000 to 10000 | ≤ 100 | CNC(=O)COc1ccc(Nc2nc3cccc(-c4ccc(OC)cc4)n3n2)cc1 [XX-035]
– | ≤ 100 | CCC(CC)Cn1cc(-c2cccc3nc(Nc4ccc(OCCN5CCCC5)cc4)nn23)cn1 [XX-319]
– | 100 to 1000 | Cc1noc(C)c1-c1cccc(-c2cccc3nc(Nc4ccc(OCCN5CCCC5)cc4)nn23)c1 [XX-464]
< 1000 | ≤ 100 | COc1ccc(-c2cccc3nc(Nc4ccc(N)cc4)nn23)cc1 [XX-007]
– | ≤ 100 | CC[C@H](C)Cn1cc(-c2cccc3nc(Nc4ccc(OCCN5CCCC5)cc4)nn23)cn1 [XX-320]
– | ≤ 100 | CCN(CC)CCOc1cc(Nc2nc3cccc(-c4ccc(OC)cc4)n3n2)ccn1 [XX-361]
– | ≤ 100 | CCN(CC)CCOc1cc(Nc2nc3cccc(-c4ccc(OC)c(F)c4)n3n2)ccn1 [XX-359]
< 1000 | ≤ 100 | COc1ccc(-c2cccc3nc(Nc4ccc(N5CCNCC5)cc4)nn23)cc1 [XX-023, [5-(4-Methoxy-phenyl)-[1,2,4]triazolo[1,5-a]pyridin-2-yl]-(4-piperazin-1-yl-phenyl)-amine]
< 1000 | ≤ 100 | c1cc(-c2ccc(N3CCOCC3)cc2)n2nc(Nc3ccc(OCCN4CCCC4)cc3)nc2c1 [XX-038]
– | ≤ 100 | Cc1ncsc1CNc1cccc(-c2cccc3nc(Nc4ccc(OCCN5CCCC5)cc4)nn23)c1 [XX-394]
– | ≤ 100 | CCN(CC)CCCNc1cccc(Nc2nc3cccc(-c4ccc5c(c4)OCCO5)n3n2)c1 [XX-130]
< 1000 | ≤ 100 | CCN(CC)CCOc1cccc(Nc2nc3cccc(-c4ccc5c(c4)OCCO5)n3n2)c1 [XX-076]
< 1000 | ≤ 100 | c1cc(-c2ccc3occc3c2)n2nc(Nc3ccc(OCCN4CCCCC4)cc3)nc2c1 [XX-050]
– | ≤ 100 | O=S(=O)(C1CC1)n1cc(-c2cccc3nc(Nc4ccc(OCCN5CCCC5)cc4)nn23)cn1 [XX-375]
– | ≤ 100 | CCCS(=O)(=O)n1cc(-c2cccc3nc(Nc4ccc(OCCN5CCCC5)cc4)nn23)cn1 [XX-380]
